From PubChem BioAssay AID2060607 (Molecular Pharmacology Branch, DTP, NCI, 2025)

Test system: 876862-298-R-J1-PDC complex spheroids, viability % test/control
Assay: Anticancer human tumor 876862-298-R-J1-PDC patient-derived endometrial carcinoma cell line growth inhibition [CLK]
Details: for IC50: curve of first compound; for viability, T/C: stronger effect = lower value; active = viability on the fitted dose curve at most 10% of control; inactive = the rest
Method in brief: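 Multi-cell-type spheroids combined patient-derived tumor cells with HUVEC endothelial cells and human mesenchymal stem cells. Paired agents were dosed in half-log steps down from about clinical Cmax, or from 10 microM where Cmax was unknown.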

[1] = second compound 0.0316 µM, first compound 0.0316 µM
[2] = second compound 0.0316 µM, first compound 0.1 µM
[3] = second compound 0.0316 µM, first compound 0.316 µM
[4] = second compound 0.0316 µM, first compound 1 µM
[5] = second compound 0.1 µM, first compound 0.0316 µM
[6] = second compound 0.1 µM, first compound 0.1 µM
[7] = second compound 0.1 µM, first compound 0.316 µM
[8] = second compound 0.1 µM, first compound 1 µM
[9] = second compound 0.316 µM, first compound 0.0316 µM
[10] = second compound 0.316 µM, first compound 0.1 µM
[11] = second compound 0.316 µM, first compound 0.316 µM
[12] = second compound 0.316 µM, first compound 1 µM
[13] = second compound 1 µM, first compound 0.0316 µM
[14] = second compound 1 µM, first compound 0.1 µM
[15] = second compound 1 µM, first compound 0.316 µM
[16] = second compound 1 µM, first compound 1 µM
[17] = second compound 3.16 µM, first compound 0.0316 µM
[18] = second compound 3.16 µM, first compound 0.1 µM
[19] = second compound 3.16 µM, first compound 0.316 µM
[20] = second compound 3.16 µM, first compound 1 µM
[21] = second compound 10 µM, first compound 0.0316 µM
[22] = second compound 10 µM, first compound 0.1 µM
[23] = second compound 10 µM, first compound 0.316 µM
[24] = second compound 10 µM, first compound 1 µM
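Note: spheroids exposed to drugs for 7 days before readout.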
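Throughout, for viability, T/C: 100% = DMSO vehicle control wells.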

CC(=O)O[C@H]1C(=O)[C@@]2(C)[C@H]([C@H](OC(=O)c3ccccc3)[C@]3(O)C[C@H](OC(=O)[C@H](O)[C@@H](NC(=O)c4ccccc4)c4ccccc4)C(C)=C1C3(C)C)[C@]1(OC(C)=O)CO[C@@H]1C[C@@H]2O + CN1CCN(c2cc(C(=O)Nc3cc4cc(-c5cnn(C)c5)ccc4cn3)ccn2)CC1
inactive: viability, T/C [1] 32.4% | viability, T/C [2] 28.7% | viability, T/C [3] 30.5% | viability, T/C [4] 28.1% | viability, T/C (second compound 0.0316 µM, first compound 3.16 µM) 30.7% | viability, T/C (second compound 0.0316 µM, first compound 10 µM) 34.8% | viability, T/C [5] 28.6% | viability, T/C [6] 24.5% | viability, T/C [7] 22.7% | viability, T/C [8] 21.3% | viability, T/C (second compound 0.1 µM, first compound 3.16 µM) 23.5% | viability, T/C (second compound 0.1 µM, first compound 10 µM) 24.1%
active: viability, T/C [9] 1.74% | viability, T/C [10] 1.82% | viability, T/C [11] 2.01% | viability, T/C [12] 2.21% | viability, T/C (second compound 0.316 µM, first compound 3.16 µM) 2.68% | viability, T/C (second compound 0.316 µM, first compound 10 µM) 4.53% | viability, T/C [13] 0.82% | viability, T/C [14] 0.89% | viability, T/C [15] 0.6% | viability, T/C [16] 0.59% | viability, T/C (second compound 1 µM, first compound 3.16 µM) 0.84% | viability, T/C (second compound 1 µM, first compound 10 µM) 0.56% | viability, T/C [17] 0.93% | viability, T/C [18] 0.84% | viability, T/C [19] 0.96% | viability, T/C [20] 0.79% | viability, T/C (second compound 3.16 µM, first compound 3.16 µM) 0.78% | viability, T/C (second compound 3.16 µM, first compound 10 µM) 0.55% | viability, T/C [21] 0.6% | viability, T/C [22] 0.59% | viability, T/C [23] 0.57% | viability, T/C [24] 0.58% | viability, T/C (second compound 10 µM, first compound 3.16 µM) 0.66% | viability, T/C (second compound 10 µM, first compound 10 µM) 0.58%
< 31.6 nM: IC50 (second compound 0.0316 µM) | IC50 (second compound 0.1 µM) | IC50 (second compound 0.316 µM) | IC50 (second compound 1 µM) | IC50 (second compound 3.16 µM) | IC50 (second compound 10 µM)

CCc1c2c(nc3ccc(O)cc13)-c1cc3c(c(=O)n1C2)COC(=O)[C@]3(O)CC + CN1CCN(c2cc(C(=O)Nc3cc4cc(-c5cnn(C)c5)ccc4cn3)ccn2)CC1
inactive: viability, T/C (second compound 0.0316 µM, first compound 0.00316 µM) 25.1% | viability, T/C (second compound 0.1 µM, first compound 0.00316 µM) 14.1%
< 3.16 nM: IC50 (second compound 0.0316 µM) | IC50 (second compound 0.1 µM) | IC50 (second compound 0.316 µM) | IC50 (second compound 1 µM) | IC50 (second compound 3.16 µM) | IC50 (second compound 10 µM)
active: viability, T/C (second compound 0.0316 µM, first compound 0.01 µM) 8.53% | viability, T/C [1] 7.87% | viability, T/C [2] 4.18% | viability, T/C [3] 3.57% | viability, T/C [4] 2.49% | viability, T/C (second compound 0.1 µM, first compound 0.01 µM) 7.89% | viability, T/C [5] 5.72% | viability, T/C [6] 4.71% | viability, T/C [7] 3.63% | viability, T/C [8] 2.79% | viability, T/C (second compound 0.316 µM, first compound 0.00316 µM) 1.72% | viability, T/C (second compound 0.316 µM, first compound 0.01 µM) 1.95% | viability, T/C [9] 1.32% | viability, T/C [10] 0.72% | viability, T/C [11] 0.73% | viability, T/C [12] 0.47% | viability, T/C (second compound 1 µM, first compound 0.00316 µM) 0.79% | viability, T/C (second compound 1 µM, first compound 0.01 µM) 0.82% | viability, T/C [13] 1.38% | viability, T/C [14] 1.51% | viability, T/C [15] 0.71% | viability, T/C [16] 0.54% | viability, T/C (second compound 3.16 µM, first compound 0.00316 µM) 0.79% | viability, T/C (second compound 3.16 µM, first compound 0.01 µM) 0.71% | viability, T/C [17] 0.85% | viability, T/C [18] 0.75% | viability, T/C [19] 0.6% | viability, T/C [20] 0.43% | viability, T/C (second compound 10 µM, first compound 0.00316 µM) 0.44% | viability, T/C (second compound 10 µM, first compound 0.01 µM) 0.53% | viability, T/C [21] 0.53% | viability, T/C [22] 0.4% | viability, T/C [23] 0.55% | viability, T/C [24] 0.49%
